The values that follow come from patent publication US12607620B2, “Devices and systems for mimicking heart function” (UNIVERSITY OF CENTRAL FLORIDA RESEARCH FOUNDATION, INC., priority 2013, dated 2026).

Assay [1] deals with human cardiomyocytes. Put plainly: Cantilever contractile force measurement of human cardiomyocytes (AFM-like laser deflection detection). The format is cell-based. The protocol: Spontaneous or electrical stimulation-evoked force generation of cardiac myocytes was measured based on optical detection or electrical detection of cantilever-bending. Optical detection of displacement of the end of the cantilever was based on the principle routinely used in atomic force microscopes (AFM) in which a laser beam was reflected from the cantilever to a sensor. The sensor detected the displacement of the laser beam caused by changes in the position of the cantilever. In this optical detection method, an automated electrical shutter was placed in the beam path. This placement minimized the exposure of the cells to the reflected laser light. Electrical detection of the displacement was based on piezoelectric principle that requires special design and materials for the fabrication of the cantilevers. Both detection methods enabled automation and high-throughput screening on myocyte contraction force. Peak contraction force and force-contraction velocity relationships were calculated based on the geometry of the cantilevers and the thickness of cultured cardiac myocytes (determined from immunostaining data). Compounds (such as norepinephrine, epinephrine, ouabain, verapamil, and sotalol) were applied using traditional methods to the medium and possible changes in force or force-velocity relationship were detected and analyzed using standard statistical methods.
A detection system similar to those used in atomic force microscope (AFM) system was designed for measuring deflection of the cantilevers during contraction. The entire system was assembled around an upright Olympus BX51WI electrophysiology microscope (Olympus Inc., Center Valley, PA). The detection system consisted of a class 2 red photodiode laser (Newport, Irvine, CA), a stimulation chamber, a 4-quadrant photodetector (Noah Industries, Melbourne, FL), and a computer with pClamp 10.0 data acquisition software (Molecular Devices, Union City, CA). The laser and photodetector (PD) were mounted on x-y-z-h translators (Newport, Irvine, CA), which were mounted on the underside of the microscope stage. The stimulation chamber was fabricated from 5 mm thick polycarbonate sheet. An approximately 15 mm×15 mm square chamber was milled out of the sheet and fitted with silver wires (0.015 inch diameter) for field stimulation. The silver wires were mounted parallel to each other with a separation of 15 mm. The bottom of the chamber was sealed using a 22 mm×22 mm glass coverslip. This created a transparent base through which the laser beam could easily pass. The silver wires were connected to an external pulse generator (A-M systems, Sequim, WA) capable of producing field stimulation pulses of varying intensity, frequency, and waveform. Both the pulse generator and PD were connected to an Axon Instruments series 1440 digitizer (Molecular Devices, Union City, CA) which was interfaced with the computer.
A detection system similar to that used in atomic force microscopy (AFM) was used in these experiments. Prior to recording, the cells were allowed to equilibrate for 15 min in the lab atmosphere at 37° C. Drugs were added cumulatively as follow: 0.1 μM, 0.3 μM, 1.0 μM, and 3.0 μM (norepinephrine); 0.1 μM, 1.0 μM, and 3.0 μM (epinephrine); 0.1 μM, 0.3 μM, 1.0 μM, and 3.0 μM (ouabain); and 0.3 μM, 1.0 μM, and 3.0 μM (verapamil). Washout was performed by rinsing the cells five (5) times with 1 mL of cell culture medium.

The test system of assay [2] is human cardiomyocytes. Put plainly: Microelectrode array (MEA) recording of electrical activity of patterned human cardiomyocytes. It is filed as cell-based.
Description: The cardiac myocytes were cultured on patterned metal MEAs (planar 10 μm electrodes, 200 μm separation, Multichannel-systems). A 60 channel amplifier (MEA1040, Multichannel-systems) was used to record electrical activity from the spontaneously beating cardiac cells. The same electrodes were also used for stimulation utilizing a stimulus generator (STG 1002, Multichannel systems). The cells were stimulated utilizing 500 mV, 1 ms wide bipolar pulses at 2 Hz. The recording medium was the same as the plating medium with the pH adjusted to 7.3 using HEPES buffer. After a 30 minute incubation period, APs were detected and recorded using built in functions of the Multichannel System software. […] The data was further analyzed using software written using Matlab and Clampfit (Axon instruments). […] The cardiomyocytes used in these experiments were derived from differentiated adult induced pluripotent stem cells purchased from Cellular Dynamics. In FIG. 27 and FIG. 28, the electrical activity of the human cardiomyocytes plated on patterned MEAs was recorded following 12 days in vitro using a Multichannel Systems 60 channel amplifier (MEA 1040, Multichannel Systems). Prior to recording, the cells were allowed to equilibrate for 15 min in the lab atmosphere at 37° C. Temperature was maintained with a TC02 temperature controller (Multichannel Systems). The cells were stimulated using a STG 1002 stimulator (Multichannel Systems) by applying 1 ms wide bipolar square pulses of 500 mV every 500 ms. The recording medium was the same as the plating medium. […] Data are represented as percentage changes compared to the control and expressed as mean +/−SEM. In FIG. 29, electrical activity of the human cardiomyocytes plated on patterned MEAs was recorded following 12 days in vitro (DIV) using a Multichannel Systems 60 channel amplifier (MEA 1040, Multichannel Systems). Prior to recording, the cells were allowed to equilibrate for 15 min in the lab atmosphere at 37° C. Temperature was maintained with a TC02 temperature controller (Multichannel Systems). The cells were stimulated using a STG 1002 stimulator (Multichannel Systems) by applying 1 ms wide bipolar square pulses of 500 mV every 500 ms. The recording medium was the same as the plating medium. Sotalol (Sigma, cat#S0278) was added to the bathing medium in increasing concentrations of 0 μM, 10 μM, 30 μM, 100 μM, and 300 μM.
Setting [3] is: cardiomyocytes derived from human iPSCs cultured on cantilevers (FIG. 31D).
Setting [4] is: norepinephrine concentration range 0.1-3 μM, human cardiac myocytes.
Where [5] appears, read: sotalol 0-300 μM in bathing medium, human cardiomyocytes on patterned MEAs, 12 DIV, change vs control (FIG. 29).

For the compound `NC[C@H](O)c1ccc(O)c(O)c1` [norepinephrine], in the assay on human cardiomyocytes [1] (setting [3]), the contractile force result is given as “increasing” and the contractile frequency result is reported as “increasing”. For the same compound, the peak contraction force result with human cardiomyocytes [1] (norepinephrine concentration range 0.1-3 μM, human cardiac myocytes on cantilevers, 14 days in vitro (FIG. 30A)) is on record as “increased”. In the assay with human cardiomyocytes [2] (setting [4]), the QT interval result is listed as “decreased”, the “minimal ISI (analogue of QT interval)” value is “decreased” and the spontaneous beating rate entry is “significantly increased”.
For `CC(C)NCC(O)c1ccc(NS(C)(=O)=O)cc1` (centres unmarked) [sotalol], in the assay on human cardiomyocytes [2] (setting [5]), the QT intervals entry was “significantly increased” and the “mISI (minimum interspike interval)” value was “significantly increased”. Moreover, in the assay with human cardiomyocytes [2] (sotalol concentrations above 100 μM, human cardiomyocytes on patterned MEAs, 12 DIV), the conduction velocity entry was “decreased”.
Consider `COc1ccc(CCN(C)CCC[C@@](C#N)(c2ccc(OC)c(OC)c2)C(C)C)cc1OC` [verapamil], for which the “peak force versus concentration (μM)” value with human cardiomyocytes [1] (human cardiomyocytes following administration of verapamil (FIG. 12C)) is listed as “decrease”. For the same compound, the contraction peak force result in the assay with human cardiomyocytes [1] (verapamil 0.3, 1.0, 3.0 μM cumulative, human cardiomyocytes on cantilevers, 14 days in vitro (FIG. 30D)) is listed as “concentration dependently decreased”.
